The values that follow come from PMC8881610 (Nature Communications, 2022).

In experiment [1] the target is T1, GIPR (Homo sapiens, UniProt P48546, R370A).
T1 sequence (P48546 22-466 R370A): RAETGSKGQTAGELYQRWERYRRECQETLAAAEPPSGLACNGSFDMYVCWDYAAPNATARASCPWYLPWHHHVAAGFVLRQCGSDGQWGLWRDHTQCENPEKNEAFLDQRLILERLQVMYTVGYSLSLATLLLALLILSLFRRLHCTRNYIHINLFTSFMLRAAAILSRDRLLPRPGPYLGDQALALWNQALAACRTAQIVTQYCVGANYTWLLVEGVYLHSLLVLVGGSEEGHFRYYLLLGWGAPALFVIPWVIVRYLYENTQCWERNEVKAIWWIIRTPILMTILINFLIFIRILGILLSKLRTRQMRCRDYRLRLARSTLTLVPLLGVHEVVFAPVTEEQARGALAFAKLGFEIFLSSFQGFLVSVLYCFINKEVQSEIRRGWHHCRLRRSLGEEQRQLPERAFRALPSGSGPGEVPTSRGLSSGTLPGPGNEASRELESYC
Briefly: Whole-cell binding assay, competition with 125I-GIP1-42. Set-up: acylated tirzepatide to the full-length or modified; Flag; expressed in transfected cells. As to conditions: GIPR R370A, CHO-K1. The gist of the method: (§1)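 Transiently transfected CHO-K1 cells expressing WT or mutant GIPR were washed in F-12 with 0.1% BSA or 0.1% casein and 33 mM HEPES, then incubated 2 h at 37 °C. After ice-cold PBS washes, cells were lysed and bound radioactivity counted (CPM).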

Experiment [2] addresses T2, GIPR (Homo sapiens, UniProt P48546, Y36A).
T2 sequence (P48546 22-466 Y36A): T1 sequence (P48546 22-466 R370A) with Y15A, A349R
Described as above. Also noted: acylated tirzepatide to the full-length or modified; Flag; expressed in transfected cells. The settings on record: GIPR Y36A, CHO-K1; for IC50: read-out: binding pIC50 (converted). The gist of the method:
as §1

Changes are numbered by the printed parent chain.

On to `CCCCCCCCCCCCCCCC(=O)N[C@@H](CCC(=O)NCCCC[C@H](NC(=O)[C@H](CC(=O)O)NC(=O)[C@H](CO)NC(=O)[C@@H](NC(=O)[C@H](Cc1ccccc1)NC(=O)[C@@H](NC(=O)CNC(=O)[C@H](CCC(N)=O)NC(=O)C(C)(C)NC(=O)[C@@H](N)Cc1c[nH]cn1)[C@@H](C)O)[C@@H](C)O)C(=O)N[C@@H](CO)C(=O)N[C@@H](CCCCN)C(=O)N[C@@H](Cc1ccc(O)cc1)C(=O)N[C@@H](CC(C)C)C(=O)N[C@@H](CC(=O)O)C(=O)N[C@@H](CCC(=O)O)C(=O)N[C@@H](CCCNC(=N)N)C(=O)N[C@@H](C)C(=O)N[C@@H](C)C(=O)N[C@@H](CCC(N)=O)C(=O)N[C@@H](CC(=O)O)C(=O)N[C@@H](Cc1ccccc1)C(=O)N[C@H](C(=O)N[C@@H](CCC(N)=O)C(=O)N[C@@H](Cc1c[nH]c2ccccc12)C(=O)N[C@@H](CC(C)C)C(=O)N[C@@H](CC(C)C)C(=O)N[C@@H](CC(=O)O)C(=O)NCC(=O)NCC(=O)N1CCC[C@H]1C(=O)N[C@@H](CO)C(=O)N[C@@H](CO)C(=O)NCC(=O)N[C@@H](C)C(=O)N1CCC[C@H]1C(=O)N1CCC[C@H]1C(=O)N1CCC[C@H]1C(=O)N[C@@H](CO)C(N)=O)C(C)C)C(=O)O` [Peptide 20], for which the “binding Span” value on GIPR [1] turned out to be 22.84 ± 2.01 % WT; on GIPR [2] it was 48.19 ± 2.73 % WT. Moreover, the values for the IC50 on GIPR [1] (read-out: binding pIC50 (converted)) and on GIPR [2] were 5.62 nM and 16.2 nM, respectively.
Consider `CC[C@H](C)[C@H](NC(=O)[C@H](CC(C)C)NC(=O)[C@H](Cc1c[nH]c2ccccc12)NC(=O)[C@H](CCC(N)=O)NC(=O)[C@@H](NC(=O)[C@H](Cc1ccccc1)NC(=O)[C@H](C)NC(=O)[C@H](CCCCNC(=O)COCCOCCNC(=O)COCCOCCNC(=O)CC[C@H](NC(=O)CCCCCCCCCCCCCCCCCCC(=O)O)C(=O)O)NC(=O)[C@H](CCC(N)=O)NC(=O)[C@H](C)NC(=O)[C@@H](NC(=O)[C@H](CCCCN)NC(=O)[C@H](CC(=O)O)NC(=O)[C@H](CC(C)C)NC(=O)C(C)(C)NC(=O)[C@@H](NC(=O)[C@H](CO)NC(=O)[C@H](Cc1ccc(O)cc1)NC(=O)[C@H](CC(=O)O)NC(=O)[C@H](CO)NC(=O)[C@@H](NC(=O)[C@H](Cc1ccccc1)NC(=O)[C@@H](NC(=O)CNC(=O)[C@H](CCC(=O)O)NC(=O)C(C)(C)NC(=O)[C@@H](N)Cc1ccc(O)cc1)[C@@H](C)O)[C@@H](C)O)[C@@H](C)CC)[C@@H](C)CC)C(C)C)C(=O)N[C@@H](C)C(=O)NCC(=O)NCC(=O)N1CCC[C@H]1C(=O)N[C@@H](CO)C(=O)N[C@@H](CO)C(=O)NCC(=O)N[C@@H](C)C(=O)N1CCC[C@H]1C(=O)N1CCC[C@H]1C(=O)N1CCC[C@H]1C(=O)N[C@@H](CO)C(N)=O` [Tirzepatide], for which, on GIPR [1], the “binding Span” value was determined as 10.40 ± 2.67 % WT and the “binding pIC50” value is listed as “N.B”. Besides, on GIPR [2], the “binding Span” value stood at 40.56 ± 12.64 % WT and the IC50 is 275 nM.
